# Assay results: patent US6825230B2, “Spiro and dispiro 1,2,4-trixolane antimalarials” (Medicines for Malaria Venture MMV, priority 2002, dated 2004)
# Where two headings read alike, the source gives them in different places.
# How the values were obtained:
# [1] = tested on: chloroquine-resistant K1 strain of P. falciparum; test: In vitro antimalarial semiautomated microdilution assay ([3H]-hypoxanthine incorporation), K1 strain; format: cell-based, Plasmodium falciparum; conditions: Plasmodium falciparum
# Procedure, shortened: (§1)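 IC50 comes from Logit regression of [3H]-hypoxanthine incorporation data. Intraerythrocytic P. falciparum taken from asynchronous stock cultures is exposed to OZ compounds in a semiautomated microdilution format.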
# [2] = tested on: chloroquine-sensitive NF54 strain of P. falciparum; test: In vitro antimalarial semiautomated microdilution assay ([3H]-hypoxanthine incorporation), NF54 strain; format: cell-based, Plasmodium falciparum; conditions: Plasmodium falciparum
# Procedure, shortened: as §1
# [3] = tested on: ANKA strain of P. berghei; test: Single dose STI in vivo screen in infected mice; design: species or system Plasmodium berghei; conditions: for Survival (days) 10 mg/kg po: single 10 mg/kg po in 3% ethanol and 7% Tween 80; for Survival (days) 10 mg/kg po / Survival (days) 10 mg/kg SSV po / Survival (days) 10 mg/kg sc: untreated 6-7 days; for Activity (%) 10 mg/kg po: single 10 mg/kg po in 3% ethanol and 7% Tween 80 on day 1 post-infection; for Survival (days) 10 mg/kg SSV po: single 10 mg/kg po in SSV; for Activity (%) 10 mg/kg SSV po: single 10 mg/kg po in standard suspending vehicle (SSV) on day 1 post-infection; for Survival (days) 10 mg/kg sc: single 10 mg/kg sc in 3% ethanol and 7% Tween 80; for Activity (%) 10 mg/kg sc: single 10 mg/kg sc in 3% ethanol and 7% Tween 80 on day 1 post-infection
# [4] = K1, 72 h, read-out: IC50 (ng/ml) K1, chloroquine-resistant K1 strain, 72 h incubation
# [5] = NF54, 72 h, read-out: IC50 (ng/ml) NF54, chloroquine-sensitive NF54 strain, 72 h incubation
# [6] = percent reduction in parasitemia on day 3
# [7] = chloroquine-resistant K1 strain, 72 h incubation, read-out: IC50 (ng/ml) K1
# [8] = chloroquine-sensitive NF54 strain, 72 h incubation, read-out: IC50 (ng/ml) NF54
Compound,"IC50 [1, 4] [ng/mL]","IC50 [2, 5] [ng/mL]",Survival (days) 10 mg/kg po [3] [days],"Activity (%) 10 mg/kg po [3, 6]",Survival (days) 10 mg/kg SSV po [3] [days],"Activity (%) 10 mg/kg SSV po [3, 6]",Survival (days) 10 mg/kg sc [3] [days],"Activity (%) 10 mg/kg sc [3, 6]","IC50 [1, 7] [ng/mL]","IC50 [2, 8] [ng/mL]",Survival (days) 3 mg/kg SSV po ([3]; single 3 mg/kg po in SSV) [days],"Activity (%) 3 mg/kg SSV po ([3]; single 3 mg/kg po in SSV, percent reduction in parasitemia on day 3) [%]"
COC(=O)c1ccc(C[C@H]2CC[C@]3(CC2)OOC2(O3)C3CC4CC(C3)CC2C4)cc1 (some centres unmarked) [OZ204],> 10,> 10,6.0,0/0/0%,6.3,0/0/0%,6.0,0/0/0%,,,,
"O=C(O)c1nccnc1C(=O)N1CCC2(CC1)OOC1(O2)C2CC3CC(C2)CC1C3 (centres unmarked) [OZ109, Adamantane-2-spiro-3′-8′-[(3′-carboxypyrazinyl)carbonyl]-1′,2′,4′-trioxa-8′-azaspiro[4.5]decane]",21,24,5.7,2%,5.7,0%,6.3,24%,,,,
c1csc(NC[C@H]2CC[C@]3(CC2)OOC2(O3)C3CC4CC(C3)CC2C4)n1 (some centres unmarked) [OZ252],,,8.3,98.91%,9.0,99.49%,9.3,99.82%,2.3,2.2,,
C(CNC1CCC2(CC1)OOC1(O2)C2CC3CC(C2)CC1C3)CN1CCOCC1 (centres unmarked) [OZ161],0.4,0.5,7.0,59%,6.7,46%,12.7,99.96%,,,,
"CCOC(=O)c1ccc(C2(c3ccc(C(=O)OCC)cc3)OOC3(O2)C2CC4CC(C2)CC3C4)cc1 (centres unmarked) [OZ125, Adamantane-2-spiro-3′-5′,5′-bis[4′-(ethoxycarbonyl)phenyl]-1′,2′,4′-trioxolane]",,,5.3,8%,5.7,0%,6.0,0%,68,> 100,,
"S=C(Nc1ccccc1)N1CCC2(CC1)OOC1(O2)C2CC3CC(C2)CC1C3 (centres unmarked) [OZ144, Adamantane-2-spiro-3′-8′-(phenylaminothiocarbonyl)-1′,2′,4′-trioxa-8′-azaspiro[4.5]decane]",1.4,2.1,7.3,99.45%,7.3,92%,16.7,99.94%,,,,
CC1(C)CC(NC2CCC3(CC2)OOC2(O3)C3CC4CC(C3)CC2C4)CC(C)(C)N1 (centres unmarked) [OZ171],1.3,1.4,9.0,98%,7.0,85%,9.7,99.94%,,,,
O=C(O)CCC(=O)N[C@H]1CC[C@]2(CC1)OOC1(O2)C2CC3CC(C2)CC1C3 (some centres unmarked) [OZ196],> 10,> 10,6.0,10%,5.3,0%,5.7,17%,,,,
NC1(C(=O)NC[C@H]2CC[C@]3(CC2)OO[C@]2(O3)C3CC4CC(C3)CC2C4)CCCCC1 [OZ333],,,,,9.2,,,,0.24,0.44,8.0,96
O=C(O)C1(c2ccccc2)CCC2(CC1)OOC1(O2)C2CC3CC(C2)CC1C3 (centres unmarked) [OZ99],77,27,6.3,30%,5.7,40%,6.3,36%,,,,
